Laboratory results published in patent publication US10363251B2, “(+)-morphinans as antagonists of toll-like receptor 9 and therapeutic uses thereof” (Mallinckrodt LLC, priority 2009, dated 2019).

Target: T1, TLR9 (Homo sapiens, UniProt Q9NR96)
T1 construct: expressed in transfected cells; host or cells: HEK293
T1 sequence (Q9NR96 26-1032): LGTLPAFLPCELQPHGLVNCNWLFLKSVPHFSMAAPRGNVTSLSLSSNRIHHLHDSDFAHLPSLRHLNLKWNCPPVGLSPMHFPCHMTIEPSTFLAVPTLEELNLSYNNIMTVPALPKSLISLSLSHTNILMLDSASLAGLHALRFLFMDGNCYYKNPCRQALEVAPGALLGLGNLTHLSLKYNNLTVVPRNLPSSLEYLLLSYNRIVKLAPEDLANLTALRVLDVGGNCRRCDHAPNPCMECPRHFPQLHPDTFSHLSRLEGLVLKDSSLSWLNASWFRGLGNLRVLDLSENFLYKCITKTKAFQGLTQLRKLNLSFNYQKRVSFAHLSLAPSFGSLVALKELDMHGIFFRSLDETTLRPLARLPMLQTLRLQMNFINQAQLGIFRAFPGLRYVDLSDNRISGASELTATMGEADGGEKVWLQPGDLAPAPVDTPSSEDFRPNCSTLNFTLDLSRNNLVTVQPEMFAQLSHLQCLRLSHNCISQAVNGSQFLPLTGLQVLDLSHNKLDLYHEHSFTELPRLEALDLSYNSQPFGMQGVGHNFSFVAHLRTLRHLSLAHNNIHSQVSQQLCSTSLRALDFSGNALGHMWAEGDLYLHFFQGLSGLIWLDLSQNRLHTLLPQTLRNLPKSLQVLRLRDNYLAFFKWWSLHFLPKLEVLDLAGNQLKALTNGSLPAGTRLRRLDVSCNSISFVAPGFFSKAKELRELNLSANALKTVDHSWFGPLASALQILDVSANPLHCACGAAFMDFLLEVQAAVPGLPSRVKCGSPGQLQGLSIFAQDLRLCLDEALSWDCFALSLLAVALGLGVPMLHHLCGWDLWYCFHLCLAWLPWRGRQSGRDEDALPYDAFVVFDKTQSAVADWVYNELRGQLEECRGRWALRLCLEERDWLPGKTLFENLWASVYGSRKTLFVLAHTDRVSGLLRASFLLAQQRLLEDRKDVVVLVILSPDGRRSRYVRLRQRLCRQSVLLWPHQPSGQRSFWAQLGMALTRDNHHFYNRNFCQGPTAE
Test: TLR9 screening of (+)-morphinan library, SEAP reporter in HEK293 cells expressing TLR9
Assay type: cell-based
Conditions: activator ODN2006; for OD 650 nm (mean ± sd): control (no activator) 0.14, activator 1.42 OD; for inhibition at 0.1 µM: HEK293, read-out: % Inhibition (mean), 100 nM; for inhibition at 10 µM: HEK293, read-out: % Inhibition (mean), 10 μM
Experimental: The secreted alkaline phosphatase reporter is under the control of a promoter inducible by the transcription factor NF-κB. A library of more than 100 (+)-morphinan compounds was screened for TLR9 antagonist activity by assessing NF-κB activation in the HEK293 cells expressing TLR9. This reporter gene allows the monitoring of signaling through the TLR, based on the activation of NF-κB.
In a 96-well plate (200 μL total volume) containing 50,000 cells/well, 20 μL of each sample compound was added to wells, in triplicate, followed by a 30 minute incubation at 37° C. and 5% CO2. After the 30 minutes of incubation, 20 μL of the activator ODN2006 was added to each well. The media added to the wells was designed for the detection of NF-κB induced SEAP expression. After a 16-20 hr incubation period, the OD at 650 nm was read on a Beckman Coulter AD 340C Absorbance Detector. All compounds were tested at concentrations of 10 μM and 100 nM.

| SMILES | OD 650 nm (mean ± sd) (100 nM) [OD] | OD 650 nm (mean ± sd) (10 μM) [OD] | inhibition at 0.1 µM [%] | inhibition at 10 µM [%] | % Inhibition (mean) (100 nM, 0.1 µM) [%] | % Inhibition (mean) (10 μM) [%] |
| --- | --- | --- | --- | --- | --- | --- |
| COc1ccc2c3c1O[C@@H]1CCC[C@]4(O)[C@H](C2)N(C)CC[C@@]314 [II-44] | 1.18 ± 0.02 | 1.03 ± 0.12 | 17 | 27 |  |  |
| COc1ccc2c3c1O[C@@H]1[C@@H]4CCC5(O4)[C@H](C2)N(C)CC[C@@]315 [II-46] | 1.24 ± 0.02 | 1.30 ± 0.02 | 13 | 8 |  |  |
| C=CCN1CC[C@@]23c4c5ccc(OC)c4O[C@@H]2C(=O)CC[C@]3(O)[C@@H]1C5 [II-47] | 1.18 ± 0.13 | 0.78 ± 0.07 | 17 | 45 |  |  |
| C=CCN1CC[C@@]23c4c5ccc(OC)c4O[C@@H]2C(=C)CC[C@]3(O)[C@@H]1C5 [II-51] | 1.20 ± 0.04 | 0.84 ± 0.05 | 16 | 41 |  |  |
| COc1ccc2c3c1O[C@@H]1C(O)CC[C@]4(O)[C@H](C2)N(CC2CCC2)CC[C@@]314 (some centres unmarked) [II-55] | 1.46 ± 0.08 | 1.17 ± 0.08 | -3 | 18 |  |  |
| COc1ccc2c3c1O[C@@H]1C(=O)CC[C@@H]4[C@H](C2)N(C(=O)C2CC2)CC[C@@]314 [II-57] | 0.84 ± 0.02 | 1.15 ± 0.03 |  | 19 | 41 |  |
| COc1ccc2c3c1O[C@@H]1C(=O)CC[C@]4(O)[C@H](C2)N(C(=O)C2CCC2)CC[C@@]314 [II-59] | 1.19 ± 0.07 | 1.41 ± 0.13 | 17 | 1 |  |  |
| COc1ccc2c3c1O[C@@H]1C(=O)CC[C@]4(O)[C@H](C2)N(C(=O)c2ccccc2)CC[C@@]314 [II-60] | 1.24 ± 0.04 | 0.17 ± 0.03 | 13 | 88 |  |  |
| O=C1CC[C@@H]2[C@@H]3Cc4ccc(O)c5c4[C@]2(CCN3)[C@@H]1O5 [II-61] | 1.23 ± 0.02 | 1.22 ± 0.07 | 13 | 14 |  |  |
| CN(C(=O)/C=C/c1ccoc1)[C@H]1CC[C@]2(O)[C@@H]3Cc4ccc(O)c5c4[C@]2(CC[N+]3([O-])CC2CC2)[C@@H]1O5 (some centres unmarked) [II-63] | 0.23 ± 0.07 | 0.13 ± 0.01 | 84 | 91 |  |  |
| C=CCN1CC[C@@]23c4c5ccc(O)c4O[C@@H]2C(=O)CC[C@]3(O)[C@@H]1C5 [II-64] | 1.31 ± 0.14 | 0.98 ± 0.01 | 8 | 31 |  |  |
| C=CCN1CC[C@@]23c4c5ccc(O)c4O[C@@H]2C(=O)CC[C@]3(OC)[C@@H]1C5 [II-70] | 1.12 ± 0.04 | 0.79 ± 0.03 | 21 | 45 |  |  |
| NC1CC[C@]2(O)[C@@H]3Cc4ccc(O)c5c4[C@]2(CCN3CC2CC2)[C@@H]1O5 (some centres unmarked) [II-71] | 0.19 ± 0.01 | 0.10 ± 0.00 | 87 | 93 |  |  |
| COc1ccc2c3c1O[C@@H]1[C@@H]4CCC5(O4)[C@H](C2)N(CC2CC2)CC[C@@]315 [II-72] | 1.10 ± 0.02 | 0.49 ± 0.01 | 22 | 65 |  |  |
| O=C1CC[C@]2(O)[C@@H]3Cc4ccc(O)c5c4[C@]2(CCN3CC2CC2)[C@@H]1O5 [II-73] | 1.35 ± 0.13 | 0.96 ± 0.08 | 5 | 32 |  |  |
| CC(=O)NC1CC[C@]2(O)[C@@H]3Cc4ccc(O)c5c4[C@]2(CCN3CC2CC2)[C@@H]1O5 (some centres unmarked) [II-75] | 1.08 ± 0.02 | 0.91 ± 0.11 | 24 | 36 |  |  |
| OCCNC1CC[C@]2(O)[C@@H]3Cc4ccc(O)c5c4[C@]2(CCN3CC2CC2)[C@@H]1O5 (some centres unmarked) [II-76] | 0.16 ± 0.01 | 0.10 ± 0.01 | 89 | 93 |  |  |
| C=C1CC[C@]2(O)[C@@H]3Cc4ccc(O)c5c4[C@]2(CCN3CC2CC2)[C@@H]1O5 [II-77] | 1.24 ± 0.04 | 0.98 ± 0.02 | 13 | 37 |  |  |
| CO[C@]12CCC(=O)[C@H]3Oc4c(O)ccc5c4[C@]31CCN(CC1CC1)[C@H]2C5 [II-79] | 1.07 ± 0.03 | 1.06 ± 0.11 | 25 | 25 |  |  |
| Oc1ccc2c3c1O[C@@H]1[C@H](O)CC[C@]4(O)[C@H](C2)N(CC2CCC2)CC[C@@]314 [II-82] | 1.37 ± 0.02 | 0.49 ± 0.03 | 4 | 65 |  |  |
| COc1ccc2c3c1O[C@@H]1C(OC(C)=O)=CC[C@]4(O)[C@H](C2)N(C(C)=O)CC[C@@]314 [II-83] | 1.40 ± 0.13 | 1.11 ± 0.09 | 1 | 22 |  |  |
| COc1ccc2c3c1O[C@@H]1C(=O)CC[C@]4(O)[C@H](C2)N(C(C)=O)CC[C@@]314 [II-84] | 1.44 ± 0.06 | 1.51 ± 0.08 | -1 | -6 |  |  |
| COc1ccc2c3c1O[C@@H]1C(=O)CC[C@@H]4[C@H](C2)N(C(=O)C2CCC2)CC[C@@]314 [II-85] | 1.45 ± 0.04 | 1.45 ± 0.04 | -2 | -2 |  |  |
| COC1=CC=C2[C@@H]3Cc4c(Br)cc(OCc5ccccc5)c5c4[C@]2(CCN3CC2CC2)[C@@H]1O5 [II-86] | 1.15 ± 0.11 | 0.13 ± 0.03 | 19 | 91 |  |  |
| COC1=CCC2[C@@H]3Cc4ccc(OC)c5c4[C@]2(CCN3CC2CC2)[C@@H]1O5 (some centres unmarked) [II-87] | 1.28 ± 0.06 | 0.45 ± 0.01 |  |  | 10 | 69 |
| O=C1CC[C@@H]2[C@@H]3Cc4ccc(OCc5ccccc5)c5c4[C@]2(CCN3CC2CC2)[C@@H]1O5 [II-88] | 1.12 ± 0.15 | 0.13 ± 0.01 | 21 | 91 |  |  |
| C=CCN1CC[C@@]23c4c5ccc(OC)c4O[C@@H]2C2(CC[C@@H]3[C@@H]1C5)OCCO2 [II-89] | 1.53 ± 0.10 | 1.08 ± 0.02 | -8 | 24 |  |  |
| [O-][N+]1(CC2CC2)CC[C@@]23c4c5ccc(O)c4O[C@@H]2[C@H](O)CC[C@]3(O)[C@@H]1C5 (some centres unmarked) [II-90] | 1.39 ± 0.03 | 0.17 ± 0.05 | 2 | 88 |  |  |
| CCCNC1CCC2C3Cc4ccc(OC)c5c4[C@]2(CCN3C)C1O5 (some centres unmarked) [II-91] | 0.12 ± 0.01 | 0.09 ± 0.01 | 92 | 93 |  |  |
